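Dose response: 5 concentrations. Exposure: 48 h. Format: 96-well plates. Endpoint: linear interpolation; highest concentration if not reached. At the TGI there is no net growth.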
Legend:
Experiment in all cases: NCI tumour cell line growth inhibition, 48 h
786-0 renal = system: 786-0 renal
A498 renal = system: A498 renal
A549 NSCLC = system: A549 NSCLC
ACHN renal = system: ACHN renal
CAKI-1 renal = system: CAKI-1 renal
CCRF-CEM leukemia = system: CCRF-CEM leukemia
COLO 205 colon = system: COLO 205 colon
DLD-1 colon = system: DLD-1 colon
DMS 114 small cell lung = system: DMS 114 small cell lung
DMS 273 small cell lung = system: DMS 273 small cell lung
EKVX NSCLC = system: EKVX NSCLC
HL-60(TB) leukemia = system: HL-60(TB) leukemia
HOP-62 NSCLC = system: HOP-62 NSCLC
HOP-92 NSCLC = system: HOP-92 NSCLC
HT29 colon = system: HT29 colon
IGROV1 ovarian = system: IGROV1 ovarian
K-562 leukemia = system: K-562 leukemia
KM12 colon = system: KM12 colon
KM20L2 colon = system: KM20L2 colon
LOX IMVI melanoma = system: LOX IMVI melanoma
LXFL 529 NSCLC = system: LXFL 529 NSCLC
M19-MEL melanoma = system: M19-MEL melanoma
MALME-3M melanoma = system: MALME-3M melanoma
MOLT-4 leukemia = system: MOLT-4 leukemia
NCI-H226 lung = system: NCI-H226 lung
NCI-H23 lung = system: NCI-H23 lung
NCI-H460 lung = system: NCI-H460 lung
NCI-H522 lung = system: NCI-H522 lung
OVCAR-4 ovarian = system: OVCAR-4 ovarian
OVCAR-5 ovarian = system: OVCAR-5 ovarian
OVCAR-8 ovarian = system: OVCAR-8 ovarian
RXF 393 renal = system: RXF 393 renal
RXF-631 renal = system: RXF-631 renal
SF-268 CNS = system: SF-268 CNS
SF-295 CNS = system: SF-295 CNS
SF-539 CNS = system: SF-539 CNS
SK-MEL-2 melanoma = system: SK-MEL-2 melanoma
SK-MEL-28 melanoma = system: SK-MEL-28 melanoma
SK-MEL-5 melanoma = system: SK-MEL-5 melanoma
SK-OV-3 ovarian = system: SK-OV-3 ovarian
SN12C renal = system: SN12C renal
SNB-19 CNS = system: SNB-19 CNS
SR leukemia = system: SR leukemia
SW-620 colon = system: SW-620 colon
TK-10 renal = system: TK-10 renal
U251 CNS = system: U251 CNS
UACC-257 melanoma = system: UACC-257 melanoma
UACC-62 melanoma = system: UACC-62 melanoma
UO-31 renal = system: UO-31 renal
XF 498 CNS = system: XF 498 CNS
HCC-2998 colon = system: HCC-2998 colon
HCT-116 colon = system: HCT-116 colon
HCT-15 colon = system: HCT-15 colon
HOP-18 NSCLC = system: HOP-18 NSCLC
M14 melanoma = system: M14 melanoma
OVCAR-3 ovarian = system: OVCAR-3 ovarian
SNB-75 CNS = system: SNB-75 CNS
SNB-78 CNS = system: SNB-78 CNS

Measured: TGI

CCOC(=O)C(C(=O)OCC)P(=S)(S)c1ccccc1 (stereo not given)
> 100 µM: 786-0 renal | A498 renal | A549 NSCLC | ACHN renal | CAKI-1 renal | CCRF-CEM leukemia | COLO 205 colon | DLD-1 colon | DMS 114 small cell lung | DMS 273 small cell lung | EKVX NSCLC | HL-60(TB) leukemia | HOP-62 NSCLC | HOP-92 NSCLC | HT29 colon | IGROV1 ovarian | K-562 leukemia | KM12 colon | KM20L2 colon | LOX IMVI melanoma | LXFL 529 NSCLC | M19-MEL melanoma | MALME-3M melanoma | MOLT-4 leukemia | NCI-H226 lung | NCI-H23 lung | NCI-H460 lung | NCI-H522 lung | OVCAR-4 ovarian | OVCAR-5 ovarian | OVCAR-8 ovarian | RXF 393 renal | RXF-631 renal | SF-268 CNS | SF-295 CNS | SF-539 CNS | SK-MEL-2 melanoma | SK-MEL-28 melanoma | SK-MEL-5 melanoma | SK-OV-3 ovarian | SN12C renal | SNB-19 CNS | SR leukemia | SW-620 colon | TK-10 renal | U251 CNS | UACC-257 melanoma | UACC-62 melanoma | UO-31 renal | XF 498 CNS

CCOC(=O)C(/C(=N/NC(=O)OC)C(=O)Nc1ccc(C(C)=O)cc1)c1cnc2ccccc2n1 (stereo not given)
> 100 µM: 786-0 renal | A498 renal | A549 NSCLC | ACHN renal | CAKI-1 renal | CCRF-CEM leukemia | COLO 205 colon | DLD-1 colon | DMS 114 small cell lung | EKVX NSCLC | HCC-2998 colon | HCT-116 colon | HCT-15 colon | HL-60(TB) leukemia | HOP-18 NSCLC | HOP-62 NSCLC | HOP-92 NSCLC | HT29 colon | IGROV1 ovarian | K-562 leukemia | KM12 colon | KM20L2 colon | LOX IMVI melanoma | LXFL 529 NSCLC | M14 melanoma | M19-MEL melanoma | MALME-3M melanoma | NCI-H226 lung | NCI-H23 lung | NCI-H460 lung | NCI-H522 lung | OVCAR-3 ovarian | OVCAR-4 ovarian | OVCAR-5 ovarian | OVCAR-8 ovarian | RXF 393 renal | RXF-631 renal | SF-268 CNS | SF-295 CNS | SF-539 CNS | SK-MEL-28 melanoma | SK-MEL-5 melanoma | SK-OV-3 ovarian | SN12C renal | SNB-19 CNS | SNB-75 CNS | SNB-78 CNS | SR leukemia | SW-620 colon | TK-10 renal | U251 CNS | UACC-257 melanoma | UACC-62 melanoma | UO-31 renal | XF 498 CNS
